In patent US11053204B2, “Pyrimidinyloxy benzene derivatives as herbicides” (FMC Corporation, priority 2015, dated 2021):

Legend:
Assay type in all cases: in vivo
[1] = test system: Italian ryegrass (Lolium multiflorum); test: Test A preemergence, visual injury rating; conditions: for Ryegrass, Italian plant response rating: 0 to 100 scale (0 no effect, 100 complete control)
Summary of the method: (§1)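 Visual injury scored 0–100 (100 = complete control) against untreated controls about 10 days after treatment in a greenhouse. Test chemicals, formulated with surfactant in non-phytotoxic solvent, were sprayed on soil preemergence or on 2-10 cm, one- to two-leaf plants postemergence.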

[2] = test system: barnyardgrass (Echinochloa crus-galli); test: Test A preemergence, visual injury rating; conditions: for Barnyardgrass plant response rating: 0 to 100 scale (0 no effect, 100 complete control)
Summary of the method: as §1

[3] = test system: giant foxtail (Setaria faberii); test: Test A preemergence, visual injury rating; conditions: for Foxtail, Giant plant response rating: 0 to 100 scale (0 no effect, 100 complete control)
Summary of the method: as §1

[4] = test system: kochia (Kochia scoparia); test: Test A preemergence, visual injury rating; conditions: for Kochia plant response rating: 0 to 100 scale (0 no effect, 100 complete control)
Summary of the method: as §1

[5] = test system: pigweed (Amaranthus retroflexus); test: Test A preemergence, visual injury rating; conditions: for Pigweed plant response rating: 0 to 100 scale (0 no effect, 100 complete control)
Summary of the method: as §1

[6] = test system: ragweed (common ragweed, Ambrosia elatior); test: Test A preemergence, visual injury rating; conditions: for Ragweed plant response rating: 0 to 100 scale (0 no effect, 100 complete control)
Summary of the method: as §1

[7] = test system: Italian ryegrass (Lolium multiflorum); test: Test A postemergence, visual injury rating; conditions: 0 is no effect, 100 is complete control; for Ryegrass, Italian plant response rating: 0 to 100 scale, approximately 10 days
Summary of the method: as §1

[8] = test system: barnyardgrass (Echinochloa crus-galli); test: Test A postemergence, visual injury rating; conditions: 0 is no effect, 100 is complete control; for Barnyardgrass plant response rating: 0 to 100 scale, approximately 10 days
Summary of the method: as §1

[9] = test system: blackgrass (Alopecurus myosuroides); test: Test A postemergence, visual injury rating; conditions: 0 is no effect, 100 is complete control; for Blackgrass plant response rating: 0 to 100 scale, approximately 10 days
Summary of the method: as §1

[10] = test system: corn (Zea mays); test: Test A postemergence, visual injury rating; conditions: 0 is no effect, 100 is complete control; for Corn plant response rating: 0 to 100 scale, approximately 10 days
Summary of the method: as §1

[11] = test system: galium (catchweed bedstraw, Galium aparine); test: Test A postemergence, visual injury rating; conditions: 0 is no effect, 100 is complete control; for Galium plant response rating: 0 to 100 scale, approximately 10 days
Summary of the method: as §1

[12] = test system: giant foxtail (Setaria faberii); test: Test A postemergence, visual injury rating; conditions: 0 is no effect, 100 is complete control; for Foxtail, Giant plant response rating: 0 to 100 scale, approximately 10 days
Summary of the method: as §1

[13] = test system: kochia (Kochia scoparia); test: Test A postemergence, visual injury rating; conditions: 0 is no effect, 100 is complete control; for Kochia plant response rating: 0 to 100 scale, approximately 10 days
Summary of the method: as §1

[14] = test system: pigweed (Amaranthus retroflexus); test: Test A postemergence, visual injury rating; conditions: 0 is no effect, 100 is complete control; for Pigweed plant response rating: 0 to 100 scale, approximately 10 days
Summary of the method: as §1

[15] = test system: ragweed (common ragweed, Ambrosia elatior); test: Test A postemergence, visual injury rating; conditions: 0 is no effect, 100 is complete control; for Ragweed plant response rating: 0 to 100 scale, approximately 10 days
Summary of the method: as §1

[16] = test system: wheat (Triticum aestivum); test: Test A postemergence, visual injury rating; conditions: 0 is no effect, 100 is complete control; for Wheat plant response rating: 0 to 100 scale, approximately 10 days
Summary of the method: as §1

[17] = test system: barnyardgrass (Echinochloa crus-galli); test: Test B flooded paddy test, plant response rating; conditions: 250 g ai/ha; Flood; scale of 0 to 100 where 0 is no effect and 100 is complete control; 13 to 15 days
Summary of the method: (§2)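 Flooded 3 cm over soil; compound into paddy water; depth kept constant. Greenhouse 13–15 d.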

[18] = test system: ducksalad (Heteranthera limosa); test: Test B flooded paddy test, plant response rating; conditions: 250 g ai/ha; Flood; scale of 0 to 100 where 0 is no effect and 100 is complete control; 13 to 15 days
Summary of the method: as §2

[19] = test system: rice (Oryza sativa); test: Test B flooded paddy test, plant response rating; conditions: 250 g ai/ha; Flood; scale of 0 to 100 where 0 is no effect and 100 is complete control; 13 to 15 days
Summary of the method: as §2

[20] = test system: sedge, umbrella (small-flower umbrella sedge, Cyperus difformis); test: Test B flooded paddy test, plant response rating; conditions: 250 g ai/ha; Flood; scale of 0 to 100 where 0 is no effect and 100 is complete control; 13 to 15 days
Summary of the method: as §2

[21] = 31 g ai/ha, 0 to 100 scale, 0 no effect, 100 complete control

## CC(=NOC(C)C)c1c(C#N)cccc1Oc1ncc(Cl)cn1 [Compound 69]
[1]; [21]
  Plant response rating, Ryegrass, Italian: 0
[1]; 125 g ai/ha
  Ryegrass, Italian plant response rating: 0
[2]; [21]
  Plant response rating, Barnyardgrass: 70
[2]; 125 g ai/ha
  Barnyardgrass plant response rating: 90
[3]; [21]
  Plant response rating, Foxtail, Giant: 40
[3]; 125 g ai/ha
  Foxtail, Giant plant response rating: 70
[4]; [21]
  Plant response rating, Kochia: 0
[4]; 125 g ai/ha
  Kochia plant response rating: 30
[5]; [21]
  Plant response rating, Pigweed: 40
[5]; 125 g ai/ha
  Pigweed plant response rating: 100
[6]; [21]
  Plant response rating, Ragweed: 0
[6]; 125 g ai/ha
  Ragweed plant response rating: 0
[7]; 31 g ai/ha
  Ryegrass, Italian plant response rating: 0
[7]; 125 g ai/ha
  Ryegrass, Italian plant response rating: 0
[8]; 31 g ai/ha
  Barnyardgrass plant response rating: 10
[8]; 125 g ai/ha
  Barnyardgrass plant response rating (0 to 100 scale): 70
[9]; 31 g ai/ha
  Blackgrass plant response rating: 10
[9]; 125 g ai/ha
  Blackgrass plant response rating (0 to 100 scale): 30
[10]; 31 g ai/ha
  Corn plant response rating: 0
[10]; 125 g ai/ha
  Corn plant response rating (0 to 100 scale): 20
[11]; 31 g ai/ha
  Galium plant response rating: 40
[11]; 125 g ai/ha
  Galium plant response rating (0 to 100 scale): 60
[12]; 31 g ai/ha
  Foxtail, Giant plant response rating: 20
[12]; 125 g ai/ha
  Foxtail, Giant plant response rating (0 to 100 scale): 30
[13]; 31 g ai/ha
  Kochia plant response rating: 20
[13]; 125 g ai/ha
  Kochia plant response rating: 40
[14]; 31 g ai/ha
  Pigweed plant response rating: 40
[14]; 125 g ai/ha
  Pigweed plant response rating: 80
[15]; 31 g ai/ha
  Ragweed plant response rating: 0
[15]; 125 g ai/ha
  Ragweed plant response rating: 0
[16]; 31 g ai/ha
  Wheat plant response rating: 0
[16]; 125 g ai/ha
  Wheat plant response rating: 0
[17]
  Plant response rating, Barnyardgrass: 0
[18]
  Plant response rating, Ducksalad: 75
[19]
  Plant response rating, Rice: 20
[20]
  Plant response rating, Sedge, Umbrella: 80

## O=C(SCC(F)(F)F)c1c(Br)cccc1Oc1ncc(Cl)cn1 [Compound 85]
[1]; 125 g ai/ha
  Ryegrass, Italian plant response rating: 0
[1]; 500 g ai/ha
  Ryegrass, Italian plant response rating: 0
[2]; 125 g ai/ha
  Barnyardgrass plant response rating: 0
[2]; 500 g ai/ha
  Barnyardgrass plant response rating: 10
[3]; 125 g ai/ha
  Foxtail, Giant plant response rating: 0
[3]; 500 g ai/ha
  Foxtail, Giant plant response rating: 70
[4]; 125 g ai/ha
  Kochia plant response rating: 0
[4]; 500 g ai/ha
  Kochia plant response rating: 0
[5]; 125 g ai/ha
  Pigweed plant response rating: 0
[5]; 500 g ai/ha
  Pigweed plant response rating: 60
[6]; 125 g ai/ha
  Ragweed plant response rating: 0
[6]; 500 g ai/ha
  Ragweed plant response rating: 0
[7]; 125 g ai/ha
  Ryegrass, Italian plant response rating: 0
[7]; 500 g ai/ha
  Ryegrass, Italian plant response rating (0 to 100 scale): 0
[8]; 125 g ai/ha
  Barnyardgrass plant response rating: 0
[8]; 500 g ai/ha
  Barnyardgrass plant response rating (0 to 100 scale): 20
[9]; 125 g ai/ha
  Blackgrass plant response rating: 0
[9]; 500 g ai/ha
  Blackgrass plant response rating (0 to 100 scale): 0
[10]; 125 g ai/ha
  Corn plant response rating: 10
[10]; 500 g ai/ha
  Corn plant response rating (0 to 100 scale): 40
[11]; 125 g ai/ha
  Galium plant response rating: 30
[11]; 500 g ai/ha
  Galium plant response rating (0 to 100 scale): 90
[12]; 125 g ai/ha
  Foxtail, Giant plant response rating: 0
[12]; 500 g ai/ha
  Foxtail, Giant plant response rating (0 to 100 scale): 60
[13]; 125 g ai/ha
  Kochia plant response rating: 30
[13]; 500 g ai/ha
  Kochia plant response rating (0 to 100 scale): 80
[14]; 125 g ai/ha
  Pigweed plant response rating: 30
[14]; 500 g ai/ha
  Pigweed plant response rating (0 to 100 scale): 70
[15]; 125 g ai/ha
  Ragweed plant response rating: 0
[15]; 500 g ai/ha
  Ragweed plant response rating (0 to 100 scale): 0
[16]; 125 g ai/ha
  Wheat plant response rating: 0
[16]; 500 g ai/ha
  Wheat plant response rating (0 to 100 scale): 20
[17]
  Plant response rating, Barnyardgrass: 0
[18]
  Plant response rating, Ducksalad: 0
[19]
  Plant response rating, Rice: 0
[20]
  Plant response rating, Sedge, Umbrella: 0
